For 30 compounds, IC50 results are on record in US7566712B2, “Biaryl piperazinyl-pyridine analogues” (Neurogen Corporation, priority 2003, dated 2009).

The structures appear in SMILES notation. pIC50: −log10 of the molar value.

The first assay deals with T1, human capsaicin receptor (Homo sapiens, UniProt Q8NER1).
T1 construct: pBK-CMV expression construct encoding the full length human capsaicin receptor; expressed in transfected cells
T1 sequence (Q8NER1 whole entry): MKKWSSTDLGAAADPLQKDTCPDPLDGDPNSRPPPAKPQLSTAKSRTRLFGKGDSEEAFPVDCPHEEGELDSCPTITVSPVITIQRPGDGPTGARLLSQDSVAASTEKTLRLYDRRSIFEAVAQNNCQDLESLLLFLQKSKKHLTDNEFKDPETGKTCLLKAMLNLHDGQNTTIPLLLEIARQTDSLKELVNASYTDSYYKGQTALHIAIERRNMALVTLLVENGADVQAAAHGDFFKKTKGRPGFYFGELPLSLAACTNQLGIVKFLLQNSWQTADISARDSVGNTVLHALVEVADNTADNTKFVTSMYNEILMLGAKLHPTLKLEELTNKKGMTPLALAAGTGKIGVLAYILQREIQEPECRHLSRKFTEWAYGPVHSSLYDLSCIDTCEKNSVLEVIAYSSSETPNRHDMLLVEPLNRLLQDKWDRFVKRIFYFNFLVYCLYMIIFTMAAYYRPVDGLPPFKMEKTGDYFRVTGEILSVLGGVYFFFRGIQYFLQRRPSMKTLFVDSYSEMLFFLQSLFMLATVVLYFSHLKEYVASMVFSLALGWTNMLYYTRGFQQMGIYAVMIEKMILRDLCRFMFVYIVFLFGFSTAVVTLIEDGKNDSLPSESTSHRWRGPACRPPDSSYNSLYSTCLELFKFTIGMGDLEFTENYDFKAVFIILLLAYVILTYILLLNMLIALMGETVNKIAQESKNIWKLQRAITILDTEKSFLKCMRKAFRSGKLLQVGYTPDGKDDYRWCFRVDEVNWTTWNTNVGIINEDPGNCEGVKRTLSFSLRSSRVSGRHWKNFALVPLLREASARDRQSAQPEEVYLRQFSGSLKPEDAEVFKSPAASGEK
As to the kind of experiment: Calcium mobilization assay, determination of antagonist activity (Example 6). It is filed as cell-based. The conditions noted are these: Table II; IC50 determined as described in Example 6. A digest of the protocol: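 Antagonism measured as inhibition of capsaicin-evoked (final concentration = EC50, from an 8-point 1 nM–3 μM curve) Fluo-3 calcium signal in stable hVR1-HEK293 cells. Test compounds at 1–5 μM final, 0.5–6 h dark preincubation at room temperature. IC50 = concentration giving 50% reduction versus agonist-only response.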
For orientation: Calcium flux is commonly read through the fluorescence of an indicator in the cells.
Consider `C[C@@H]1CN(c2ncccc2C#N)CCN1c1cc(-c2ccc3ccccc3c2)nc(N2CCOCC2)n1` [Example 489, 2-{(3R)-3-methyl-4-[2-morpholin-4-yl-6-(2-naphthyl)pyrimidin-4-yl]piperazin-1-yl}nicotinonitrile], for which the pIC50 was at least 6.00.
With `CCOc1cccc(-c2cc(N3CCN(c4ncccc4Cl)C[C@H]3C)nc(N3CCOCC3)n2)c1` [Example 531, 4-[4-[(2R)-4-(3-chloropyridin-2-yl)-2-methylpiperazin-1-yl]-6-(3-ethoxyphenyl)pyrimidin-2-yl]morpholine], the pIC50 was at least 6.00.
Same read-out and setting: then `C[C@@H]1CN(c2ncccc2Cl)CCN1c1cc(-c2ccc(C(C)(C)C)cc2)nc(N2CCOCC2)n1` [Example 520, 4-{4-(4-tert-butylphenyl)-6-[(2R)-4-(3-chloropyridin-2-yl)-2-methylpiperazin-1-yl]pyrimidin-2-yl}morpholine], with at least 6.00; and `C=CCN1CCN(c2nc(-c3ccccc3)nc(N3CCN(c4ncccc4C(F)(F)F)CC3)n2)CC1` [Example 440, 2-(4-allylpiperazin-1-yl)-4-phenyl-6-{4-[3-(trifluoromethyl)pyridin-2-yl]piperazin-1-yl}-1,3,5-triazine], with at least 6.00; and `N#Cc1cccc(-c2nc(N3CCOCC3)nc(N3CCN(c4ncccc4C(F)(F)F)CC3)n2)c1` [Example 435, 3-(4-morpholin-4-yl-6-{4-[3-(trifluoromethyl)pyridin-2-yl]piperazin-1-yl}-1,3,5-triazin-2-yl)benzonitrile], with at least 6.00.
On the same count and under the same terms, the value for `NC(=O)[C@@H]1CCCN1c1nc(-c2ccc(F)c(Cl)c2)cc(N2CCN(c3ncccc3C(F)(F)F)CC2)n1` [Example 567, 1-(4-(3-chloro-4-fluorophenyl)-6-{4-[3-(trifluoromethyl)pyridin-2-yl]piperazin-1-yl}pyrimidin-2-yl)-L-prolinamide] was at least 6.00.

Staying with this assay, now noted: Table II; IC50 determined as described in Example 6 (antagonist activity, calcium mobilization).
As to `C[C@@H]1CN(c2ncccc2F)CCN1c1cc(-c2ccc(F)c(Cl)c2)nc(N2CCOC[C@@H]2C)n1` [Example 1004, (3S)-4-{4-(3-chloro-4-fluorophenyl)-6-[(2R)-4-(3-fluoropyridin-2-yl)-2-methylpiperaztn-1-yl]pyrimidin-2-yl}-3-methylmorpholine], the pIC50 was at least 6.00.
Still for that read-out and setting: the value for `C[C@@H]1CN(c2ccccc2F)CCN1c1cc(-c2ccc(F)c(Cl)c2)nc(N2CCOCC2)n1` [Example 991, 4-{4-(3-chloro-4-fluorophenyl)-6-[(2R)-4-(2-fluorophenyl)-2-methylpiperazin-1-yl]pyrimidin-2-yl}morpholine] was at least 6.00; that for `CC1CCCN1c1nc(-c2ccc(F)c(Cl)c2)cc(N2CCN(c3ncccn3)CC2)n1` (stereo not drawn) [Example 996, 4-(3-chloro-4-fluorophenyl)-2-(2-methylpyrrolidin-1-yl)-6-(4-pyrimidin-2-ylpiperazin-1-yl)pyrimidine] was at least 6.00.

The assay is the same for the next values; noted with them: Table II; determined as described in Example 6 (antagonist activity); "*" = 1 micromolar or less.
Regarding `CC1CCCN1c1nc(-c2ccc(-c3ncon3)cc2)cc(N2CCN(c3ncccc3Cl)C[C@H]2C)n1` (stereo partly drawn) [Example 865, 4-[4-(3-chloropyridin-2-yl)-2-methylpiperazin-1-yl]-2-(2-methylpyrrolidin-1-yl)-6-[4-(1,2,4-oxadiazol-3-yl)phenyl]pyrimidine], the pIC50 is at least 6.00.
Turning to `C[C@H]1CN(c2nccnc2Cl)CCN1c1cc(-c2ccc(Cl)c(F)c2)nc(Cl)n1` [Example 956, 2-chloro-4-(4-chloro-3-fluorophenyl)-6-[(2S)-4-(3-chloropyrazin-2-yl)-2-methylpiperazin-1-yl]pyrimidine], the pIC50 is at least 6.00.
Still for that read-out and setting: then `CC(=O)c1nc(-c2ccc(F)c(C(C)=O)c2)cc(N2CCN(c3ncccc3C(F)(F)F)CC2)n1` [Example 846, 1-(4-(3-acetyl-4-fluorophenyl)-6-{4-[3-(trifluoromethyl)pyridin-2-yl]piperazin-1-yl}pyrimidin-2-yl)ethanone], with at least 6.00.
The same measure, in the same setting: then `COc1cnc(N2CCN(c3cc(-c4ccc(F)c(Cl)c4)nc(N4CCCC4C)n3)CC2)c(C)c1` (stereo not drawn) [Example 818, 4-(3-chloro-4-fluorophenyl)-6-[4-(5-methoxy-3-methylpyridin-2-yl)piperazin-1-yl]-2-(2-methylpyrrolidin-1-yl)pyrimidine], with at least 6.00; and `CN(C)CCC(O)c1nc(-c2ccc(F)c(F)c2)cc(N2CCN(c3ncccc3C(F)(F)F)CC2)n1` (stereo not drawn) [Example 893], with at least 6.00; and `Cc1cccnc1N1CCN(c2cc(-c3ccc(F)c(Cl)c3)nc(N3CCOCC3)n2)[C@H](C)C1` [Example 852, 4-{4-(3-chloro-4-fluorophenyl)-6-[(2R)-2-methyl-4-(3-methylpyridin-2-yl)piperazin-1-yl]pyrimidin-2-yl}morpholine], with at least 6.00.
On the same count and under the same terms, then `C[C@@H]1CN(c2ncccc2Cl)CCN1c1cc(-c2cncc(Cl)c2)nc(N2CCOCC2)n1` [Example 837, 4-{4-(5-chloropyridin-3-yl)-6-[(2R)-4-(3-chloropyridin-2-yl)-2-methylpiperazin-1-yl]pyrimidin-2-yl}morpholine], with at least 6.00; and `CC1CCCN1c1nc(-c2ccc(F)cc2)cc(N2CCN(c3nc(O)ccc3Cl)C[C@H]2C)n1` (stereo partly drawn) [Example 970, 5-chloro-6-{4-[6-(4-fluorophenyl)-2-(2-methylpyrrolidin-1-yl)pyrimidin-4-yl]-3-methylpiperazin-1-yl}pyridin-2-ol], with at least 6.00.
Regarding `Cc1cc(-c2cc(N3CCN(c4nccnc4Cl)C[C@H]3C)nc(N3CCOCC3)n2)ccc1F` [Example 916, 4-[4-[(2R)-4-(3-chloropyrazin-2-yl)-2-methylpiperazin-1-yl]-6-(4-fluoro-3-methylphenyl)pyrimidin-2-yl]morpholine], the pIC50 was at least 6.00.
The same measure, in the same setting: then `C[C@@H]1CCCN1c1nc(-c2ccc(F)c(F)c2)cc(N2CCN(c3nccnc3Cl)C[C@@H]2C)n1` [Example 951, 4-[(2S)-4-(3-chloropyrazin-2-yl)-2-methylpiperazin-1-yl]-6-(3,4-difluorophenyl)-2-[(2R)-2-methylpyrrolidin-1-yl]pyrimidine], with at least 6.00; and `CCCN1CC=C(c2nc(-c3ccc(F)c(Cl)c3)cc(N3CCN(c4ncccc4C(F)(F)F)CC3)n2)CC1` [Example 863, 4-(3-chloro-4-fluorophenyl)-2-(1-propyl-1,2,3,6-tetrahydropyridin-4-yl)-6-{4-[3-(trifluoromethyl)pyridin-2-yl]piperazin-1-yl}pyrimidine], with at least 6.00.

The assay is the same for the next values; noted with them: determined as described in Example 6 (calcium mobilization, antagonist activity); Table II.
With `Cc1cc(-c2cc(N3CCN(c4ncccc4C(F)(F)F)CC3)nc(N3CCC3(C)C)n2)ccc1F` [Example 766, 2-(2,2-dimethylazetidin-1-yl)-4-(4-fluoro-3-methylphenyl)-6-{4-[3-(trifluoromethyl)pyridin-2-yl]piperazin-1-yl}pyrimidine], the pIC50 is at least 6.00.
Still for that read-out and setting: then `CC1(C)CCCN(c2nc(-c3ccc(F)c(Cl)c3)cc(N3CCN(c4ncccc4C(F)(F)F)CC3)n2)C1` [Example 612, 4-(3-chloro-4-fluorophenyl)-2-(3,3-dimethylpiperidin-1-yl)-6-{4-[3-(trifluoromethyl)pyridin-2-yl]piperazin-1-yl}pyrimidine], with at least 6.00; and `Cc1cc(-c2cc(N3CCN(c4ncccc4C(F)(F)F)CC3)nc(N3CCCCC3C)n2)ccc1F` (stereo not drawn) [Example 642, 4-(4-fluoro-3-methylphenyl)-2-(2-methylpiperidin-1-yl)-6-{4-[3-(trifluoromethyl)pyridin-2-yl]piperazin-1-yl}pyrimidine], with at least 6.00; and `CC1CCC(C)N1c1nc(-c2ccc(F)c(Cl)c2)cc(N2CCN(c3ncccc3Cl)C[C@H]2C)n1` (stereo partly drawn) [Example 752, 4-(3-chloro-4-fluorophenyl)-6-[(2R)-4-(3-chloropyridin-2-yl)-2-methylpiperazin-1-yl]-2-(2,5-dimethylpyrrolidin-1-yl)pyrimidine], with at least 6.00.
On the same count and under the same terms, the value for `O=C1CN(c2cc(-c3ccc(F)c(Cl)c3)nc(N3CCOCC3)n2)CCN1c1ccccn1` [Example 659, 4-[6-(3-chloro-4-fluorophenyl)-2-morpholin-4-ylpyrimidin-4-yl]-1-pyridin-2-ylpiperazin-2-one] was at least 6.00; that for `Cc1cc(-c2cc(N3CCN(c4ncccc4C(F)(F)F)CC3)nc(N3CCOCC3)n2)ccn1` [Example 575, 4-(4-(2-methylpyridin-4-yl)-6-{4-[3-(trifluoromethyl)pyridin-2-yl]piperazin-1-yl}pyrimidin-2-yl)morpholine] was at least 6.00; that for `CC1CCCN1c1nc(-c2ccc(F)c(Cl)c2)cc(N2CCN(c3ncccc3Cl)CC2)n1` (stereo not drawn) [Example 714, 4-(3-chloro-4-fluorophenyl)-6-[4-(3-chloropyridin-2-yl)piperazin-1-yl]2-(2-methylpyrrolidin-1-yl)pyrimidine] was at least 6.00.
On the same count and under the same terms, the value for `CC1CCCN1c1nc(-c2ccc(F)cc2)cc(N2CCN(c3ncccc3F)CC2)n1` (stereo not drawn) [Example 749, 4-(4-fluorophenyl)-6-[4-(3-fluoropyridin-2-yl)piperazin-1-yl]-2-(2-methylpyrrolidin-1-yl)pyrimidine] was at least 6.00.
For the compound `Cn1ccnc1-c1nc(-c2ccc(F)c(Cl)c2)cc(N2CCN(c3ncccc3C(F)(F)F)CC2)n1` [Example 662, 4-(3-chloro-4-fluorophenyl)-2-(1-methyl-1H-imidazol-2-yl)-6-{4-[3-(trifluoromethyl)pyridin-2-yl]piperazin-1-yl}pyrimidine], the pIC50 is at least 6.00.
The same measure, in the same setting: then `FC(F)(F)c1cccnc1N1CCN(c2cc(-c3cncc(Cl)c3)nc(N3CCOCC3)n2)CC1` [Example 593, 4-(4-(5-chloropyridin-3-yl)-6-{4-[3-(trifluoromethyl)pyridin-2-yl]piperazin-1-yl}pyrimidin-2-yl)morphotine], with at least 6.00.

One may read the pIC50 as −log10 of the IC50, conventionally taken in molar units.
